Data from patent US20260274855A1, “AMORPHOUS FORM OF ISOQUINOLINE DERIVATIVE” (vTv Therapeutics LLC, priority 2020, published 2026).
Where a name gives a salt, the structure may show the parent alone. Read-outs that look alike come from different tables or passages of the source.

Assays:
Type in all cases: physicochemical
[1] = 3 month stability study at 25° C. ± 2° C. and 60% RH
Procedure: A 3-month stability study was conducted at 25° C.±2° C. and 60% relative humidity.

[2] = 30-day stability study at 60° C.
Procedure: A 30-day stability study at 60° C. was conducted on a sample of material obtained from the method of Example 3.

[3] = Solubility in aqueous solutions at various pH's
[4] = Dissolution studies, four-part dissolution test method of Chinese Pharmacopoeia (2015 edition)
Procedure: Dissolution studies were conducted according to the four-part dissolution test method in the Chinese Pharmacopoeia (2015 edition) in the following solvents: methanol, acetic acid, ethanol, 0.1 mol/L HCl, acetonitrile, and 2-methyltetrahydrofuran. The dissolution study method involves weighing a fine powder (after grinding) of solid test product, attempting to dissolve in a proper volume of solvent by strongly shaking for 30 seconds every 5 minutes for 30 minutes, and recording observations after 30 minutes.

[5] = Stability study at 40° C. and 100% RH for 7 days
Procedure: The stability of crystal form B of OAD2 hydrochloride and the amorphous form of OAD2 dihydrochloride was tested under conditions of 40° C./100% RH for 1 week.

[6] = Hygroscopicity study, DVS test (25° C., 80% RH)
Procedure: Dynamic moisture adsorption (DVS) curves were collected on DVS Intrinsic of Surface Measurement Systems (SMS). The relative humidity at 25° C. was corrected with the deliquescent points of LiCl, Mg(NO3)2 and KCl.

[7] = Month 0, listed as Ex. 3, dihydrochloride salt
[8] = Month 0, listed as Ex. 4, dihydrochloride salt
[9] = Month 0, listed as Ex. 5, dihydrochloride salt
[10] = Month 1, listed as Ex. 3, dihydrochloride salt
[11] = Month 1, listed as Ex. 4, dihydrochloride salt
[12] = Month 1, listed as Ex. 5, dihydrochloride salt
[13] = Month 2, listed as Ex. 3, dihydrochloride salt
[14] = Month 2, listed as Ex. 4, dihydrochloride salt
[15] = Month 2, listed as Ex. 5, dihydrochloride salt
[16] = Month 3, listed as Ex. 3, dihydrochloride salt
[17] = Month 3, listed as Ex. 4, dihydrochloride salt
[18] = Month 3, listed as Ex. 5, dihydrochloride salt

- Appearance ([1]; Month 0): Off-white
- Solid form ([1]; Month 0): Amorphous
- Moisture Content [1, 7]: 1.7%
- Percentage of external standard content [1, 7]: 98.1%
- Purity [1, 7]: 99.30%
- Moisture Content [1, 8]: 2.5%
- Percentage of external standard content [1, 8]: 97.1%
- Purity [1, 8]: 98.7%
- Moisture Content [1, 9]: 1.6%
- Percentage of external standard content [1, 9]: 97.1%
- Purity [1, 9]: 99.03%
- Appearance ([1]; Month 1): Off-white
- Solid form ([1]; Month 1): Amorphous
- Moisture Content [1, 10]: 3.1%
- Percentage of external standard content [1, 10]: 99.0%
- Purity [1, 10]: 99.25%
- Moisture Content [1, 11]: 4.7%
- Percentage of external standard content [1, 11]: 96.8%
- Purity [1, 11]: 98.6%
- Moisture Content [1, 12]: 3.3%
- Percentage of external standard content [1, 12]: 97.2%
- Purity [1, 12]: 98.90%
- Appearance ([1]; Month 2): Off-white
- Solid form ([1]; Month 2): Amorphous
- Moisture Content [1, 13]: 3.4%
- Percentage of external standard content [1, 13]: 98.7%
- Purity [1, 13]: 99.30%
- Moisture Content [1, 14]: 3.6%
- Percentage of external standard content [1, 14]: 97.6%
- Purity [1, 14]: 98.6%
- Moisture Content [1, 15]: 4.1%
- Percentage of external standard content [1, 15]: 97.8%
- Purity [1, 15]: 98.90%
- Appearance ([1]; Month 3): Off-white
- Solid form ([1]; Month 3): Amorphous
- Moisture Content [1, 16]: 3.7%
- Percentage of external standard content [1, 16]: 99.8%
- Purity [1, 16]: 99.23%
- Moisture Content [1, 17]: 4.8%
- Percentage of external standard content [1, 17]: 98.2%
- Purity [1, 17]: 98.5%
- Moisture Content [1, 18]: 4.5%
- Percentage of external standard content [1, 18]: 98.7%
- Purity [1, 18]: 98.90%
- Appearance ([2]; Day 0): Off-white
- Moisture Content ([2]; Day 0): 1.6%
- Percentage of external standard content ([2]; Day 0): 97.1%
- Purity ([2]; Day 0): 99.03%
- Solid form ([2]; Day 0): Amorphous
- Appearance ([2]; Day 5): Off-white
- Moisture Content ([2]; Day 5): 2.7%
- Percentage of external standard content ([2]; Day 5): 99.1%
- Purity ([2]; Day 5): 98.7%
- Solid form ([2]; Day 5): Amorphous
- Appearance ([2]; Day 10): Off-white
- Moisture Content ([2]; Day 10): 2.4%
- Percentage of external standard content ([2]; Day 10): 97.5%
- Purity ([2]; Day 10): 98.7%
- Solid form ([2]; Day 10): Amorphous
- Appearance ([2]; Day 30): Pale-yellow
- Moisture Content ([2]; Day 30): 2.5%
- Percentage of external standard content ([2]; Day 30): 97.4%
- Purity ([2]; Day 30): 97.7%
- Solid form ([2]; Day 30): Amorphous
- solubility ([3]; Buffer pH 5): Not detectable
- solubility ([3]; aqueous solution, aqueous buffer, thermodynamic from solid, Buffer pH 7, read-out: Solubility): 90 µg/mL
- solubility ([3]; aqueous solution, aqueous buffer, thermodynamic from solid, Buffer pH 9, read-out: Solubility): 50 µg/mL
- solubility ([3]; aqueous solution, aqueous buffer, thermodynamic from solid, solvent 0.1 NaOH, read-out: Solubility): 17 µg/mL
- solubility ([3]; aqueous solution, simulated gastric fluid, thermodynamic from solid, solvent 0.1 HCl, read-out: Solubility): > 51000 µg/mL
- solubility ([3]; solvent 0.1 HCl, listed as OAD2 dihydrochloride salt, dihydrochloride salt): >51000 µg/mL
- Dissolution ([4]; 0.1 mol/L HCl, about 1 g sample in 9.99 mL, after 30 minutes, listed as 3, dihydrochloride salt): Incomplete
- Dissolution ([4]; 0.1 mol/L HCl, about 1 g sample in 9.99 mL, after 30 minutes, listed as 4, dihydrochloride salt): Incomplete
- Dissolution ([4]; 0.1 mol/L HCl, about 1 g sample in 9.99 mL, after 30 minutes, listed as 5, dihydrochloride salt): Incomplete
- Dissolution ([4]; 0.1 mol/L HCl, about 1 g sample in 9.99 mL, after 30 minutes, listed as amorphous solid of OAD2 dihydrochloride salt, dihydrochloride salt): completely dissolved
- Dissolution ([4]; 0.1 mol/L HCl, about 1 g sample in 29.99 mL, after 30 minutes): Complete
- Dissolution ([4]; 2-methyl tetrahydrofuran, about 0.01 g sample in 101 mL, after 30 minutes, listed as 3, dihydrochloride salt): Incomplete
- Dissolution ([4]; 2-methyl tetrahydrofuran, about 0.01 g sample in 101 mL, after 30 minutes, listed as 4, dihydrochloride salt): Incomplete
- Dissolution ([4]; 2-methyl tetrahydrofuran, about 0.01 g sample in 101 mL, after 30 minutes, listed as 5, dihydrochloride salt): Incomplete
- Dissolution ([4]; 2-methyl tetrahydrofuran, about 0.01 g sample in 101 mL, after 30 minutes, listed as amorphous solid of OAD2 dihydrochloride salt, dihydrochloride salt): incompletely dissolved
- Dissolution ([4]; Acetonitrile, about 0.01 g sample in 101 mL, after 30 minutes, listed as 3, dihydrochloride salt): Incomplete
- Dissolution ([4]; Acetonitrile, about 0.01 g sample in 101 mL, after 30 minutes, listed as 4, dihydrochloride salt): Incomplete
- Dissolution ([4]; Acetonitrile, about 0.01 g sample in 101 mL, after 30 minutes, listed as 5, dihydrochloride salt): Incomplete
- Dissolution ([4]; Acetonitrile, about 0.01 g sample in 101 mL, after 30 minutes, listed as amorphous solid of OAD2 dihydrochloride salt, dihydrochloride salt): incompletely dissolved
- Dissolution ([4]; Ethanol, about 1 g sample in 9.99 mL, after 30 minutes, listed as 3, dihydrochloride salt): Incomplete
- Dissolution ([4]; Ethanol, about 1 g sample in 9.99 mL, after 30 minutes, listed as 4, dihydrochloride salt): Incomplete
- Dissolution ([4]; Ethanol, about 1 g sample in 9.99 mL, after 30 minutes, listed as 5, dihydrochloride salt): Incomplete
- Dissolution ([4]; Ethanol, about 1 g sample in 9.99 mL, after 30 minutes, listed as amorphous solid of OAD2 dihydrochloride salt, dihydrochloride salt): completely dissolved
- Dissolution ([4]; Ethanol, about 1 g sample in 29.99 mL, after 30 minutes): Complete
- Dissolution ([4]; Methanol, about 1 g sample in 9.99 mL, after 30 minutes, listed as 3, dihydrochloride salt): Complete
- Dissolution ([4]; Methanol, about 1 g sample in 9.99 mL, after 30 minutes, listed as 4, dihydrochloride salt): Complete
- Dissolution ([4]; Methanol, about 1 g sample in 9.99 mL, after 30 minutes, listed as 5, dihydrochloride salt): Complete
- Dissolution ([4]; Methanol, about 1 g sample in 9.99 mL, after 30 minutes, listed as amorphous solid of OAD2 dihydrochloride salt, dihydrochloride salt): completely dissolved
- Dissolution ([4]; acetic acid, about 10 mL of solvent): completely dissolved
- Decrease in purity ([5]; 40° C./100% RH for 1 week): no distinct decrease in purity
- HPLC (area %) ([5]; 40° C./100% RH/7 d): 97.51 area %
- HPLC (area %) ([5]; Initiation): 98.91 area %
- Moisture adsorption rate [6]: 8.3%
Compound: CC[C@@H](c1ccccc1)N1Cc2cc3c(cc2C[C@H]1C(=O)N[C@@H](Cc1ccc(-c2ccnc(C)c2C)cc1)C(=O)O)OC[C@H](c1ccc(OCc2ccc(Cl)c(Cl)c2)cc1)O3 [OAD2 dihydrochloride, (S)-2-(3S,8S)-3-(4-(3,4-dichlorobenzyloxy)phenyl-7-((S)-1-phenylpropyl)-2,3,6,7,8,9-hexahydro-[1,4]-dioxino[2,3-g]isoquinolin-8-ylformylamino)-3-(4-(2,3-dimethylpyridin-4-yl)phenyl)propionic acid dihydrochloride salt]
